ChEMBL document CHEMBL1212908, “Flavonoids in the poisonous plant Oxytropis falcata” (J Nat Prod, 2010)

How the values were obtained:
[1] = system: Radical scavenging activity; assay: Antioxidant activity assessed as DPPH free radical scavenging activity after 30 mins; assay type: functional
HL-60 = assay: Cytotoxicity against human HL60 cells by MTT assay; assay type: functional, cell-based

COc1c(O)cc2c(c1OC)O[C@H]1c3ccc(O)cc3OC[C@@H]21
IC20 [1]: 3.8 µM
IC50 (HL-60): > 50 µM

COc1ccc([C@@H]2COc3cc(O)c(C(c4ccc(O)cc4O)C(O)Cc4ccc(O)cc4)cc3C2)c(O)c1OC (some centres not stated) [OXYTROPISOFLAVAN A]
IC20 [1]: > 50 µM
IC50 (HL-60): > 50 µM

COc1ccc([C@@H]2COC3=CC(=O)CC[C@]3(O)C2)c(O)c1OC [OXYTROPISOFLAVAN B]
IC20 [1]: > 50 µM
IC50 (HL-60): > 50 µM

VITAMIN E
IC20 [1]: 7.6 µM
